Reference: patent EP0482657A2, “Cephem compounds, their production and use” (Takeda Chemical Industries, Ltd., priority 1990, dated 1992)

Legend:
[1] = system: Staphylococcus aureus 308A-1; test: Therapeutic effects against intraperitoneal infections in mice (oral administration); format: in vivo; conditions: 308A1, po, 120 h; Slc:ICR mice infected intraperitoneally with Staphylococcus aureus 308A-1; once orally immediately after infection; survival over five days; Reed and Münch; in terms of potency of the said cephem carboxylic acid
Method: (§1) Infections in Mice. Test animals: Slc : ICR, 4-week old male mice (body weight 20 to 22 g) were employed. Induction of experimental infections (infected mice):
(§2) Staphylococcus aureus 308A-1 or Escherichia coli 0-111 was cultured in Brain Heart Infusion broth (manufactured by Difco Co.) at 37°C for 20 hours. Each of the organisms was suspended in a 8% mucin solution (manufactured by Difco in) at a concentration of 2 x 10⁸ Colony Forming Units (hereinafter abbreviated as "CFU")/ml and 2 x 10⁵ CFU/ml, respectively, and 0.5 ml of each suspension was administered intraperitoneally. Administration of Test compounds: 25 mg of each test compound was dissolved in 0.5 ml of DMSO, and each solution was diluted in distilled water to prepare two fold dilutions of each compound in the range of 2.5 mg/ml - 0.156 mg/ml in the case of infection with Staphylococcus aureus and in the range of 0.156 mg/ml - 0.01 mg/ml in the case of infection with Escherichia coli. A volume of 0.2 ml of each dilution was once administered orally using a tube into the stomach of five mice each in each group immediately after the infection. […] The ED₅₀ value of each compound was that in terms of the potency of the said cephem carboxylic acid.

Escherichia coli O-111 = test: as above; format: in vivo; conditions: O111, po, 120 h; Slc:ICR mice infected intraperitoneally with Escherichia coli O-111; once orally immediately after infection; survival over five days; Reed and Münch; in terms of potency of the said cephem carboxylic acid
Method: as §1, §2

## Cc1nnc(SCC2=C(C(=O)OC(C)OC(=O)OC3CCC3)N3C(=O)[C@@H](NC(=O)/C(=N\O)c4csc(N)n4)[C@H]3SC2)s1.Cl (stereo partly drawn) [Ex.5, 1-(Cyclobutyloxycarbonyloxy)ethyl 7β-[2-(2-aminothiazol-4-yl)-(Z)-2-hydroxyiminoacetamido]-3-[(2-methyl-1,3,4-thiadiazol-5-yl)thiomethyl]-3-cephem-4-carboxylate hydrochloride]
[1]
  ED50: 14 mg/kg

## CCOC(=O)OC(C)OC(=O)C1=C(CSc2nnc(C)s2)CS[C@@H]2[C@H](NC(=O)/C(=N\O)c3csc(N)n3)C(=O)N12 (some centres unmarked) [JP-A-9698/1985 PR Ex.4, 1-(ethoxycarbonyloxy)ethyl ester of the said cephem carboxylic acid, reference compound]
Escherichia coli O-111
  ED50: 0.349 mg/kg
[1]
  ED50: > 25 mg/kg

## Cc1nnc(SCC2=C(C(=O)O)N3C(=O)[C@@H](NC(=O)/C(=N\O)c4csc(N)n4)[C@H]3SC2)s1 [GB-A-1587941 Ex.16, 7β-[2-(2-aminothiazol-4-yl)-(Z)-2-hydroxyiminoacetamido]-3-[(2-methyl-1,3,4-thiadiazol-5-yl)thiomethyl]-3-cephem-4-carboxylic acid, reference compound]
Escherichia coli O-111
  ED50: 1.25 mg/kg
[1]
  ED50: > 25 mg/kg

## CCC(CC)OC(=O)OC(C)OC(=O)C1=C(CSc2nnc(C)s2)CS[C@@H]2[C@H](NC(=O)/C(=N\O)c3csc(N)n3)C(=O)N12.Cl (stereo partly drawn) [Ex.6, 1-(1-Ethylpropoxycarbonyloxy)ethyl 7β-[2-(2-aminothiazol-4-yl)-(Z)-2-hydroxyiminoacetamido]-3-[(2-methyl-1,3,4-thiadiazol-5-yl)thiomethyl]-3-cephem-4-carboxylate hydrochloride]
[1]
  ED50: 12.5 mg/kg

## Cc1nnc(SCC2=C(C(=O)OC(C)OC(=O)OC(C)C)N3C(=O)[C@@H](NC(=O)/C(=N\O)c4csc(N)n4)[C@H]3SC2)s1 (single isomer, unassigned) [Ex.1, 1-(Isopropoxycarbonyloxy)ethyl 7β-[2-(2-aminothiazol-4-yl)-(Z)-2-hydroxyiminoacetamido]-3-[(2-methyl-1,3,4-thiazol-5-yl)thiomethyl]-3-cephem-4-carboxylate]
Escherichia coli O-111
  ED50: 0.141 mg/kg
[1]
  ED50: 7.02 mg/kg

## Cc1nnc(SCC2=C(C(=O)OCOC(=O)C(C)(C)C)N3C(=O)[C@@H](NC(=O)/C(=N\O)c4csc(N)n4)[C@H]3SC2)s1 [JP-A-9698/1985 PR Ex.3, pivaloyloxymethyl ester of the said cephem carboxylic acid, reference compound]
Escherichia coli O-111
  ED50: 0.279 mg/kg
[1]
  ED50: 22.3 mg/kg

## Cc1nnc(SCC2=C(C(=O)OC(C)OC(=O)OC(C)C)N3C(=O)[C@@H](NC(=O)/C(=N\O)c4csc(N)n4)[C@H]3SC2)s1.Cl (stereo partly drawn) [Ex.2, 1-(Isopropoxycarbonyloxy)ethyl 7β-[2-(2-aminothiazol-4-yl)-(Z)-2-hydroxyiminoacetamido]-3-[(2-methyl-1,3,4-thiadiazol-5-yl)thiomethyl]-3-cephem-4-carboxylate hydrochloride]
Escherichia coli O-111
  ED50: 0.13 mg/kg
[1]
  ED50: 5.57 mg/kg

## Cc1nnc(SCC2=C(C(=O)OC(C)OC(=O)OC3CCCC3)N3C(=O)[C@@H](NC(=O)/C(=N\O)c4csc(N)n4)[C@H]3SC2)s1 (stereo partly drawn) [Ex.3, 1-(Cyclopentyloxycarbonyloxy)ethyl 7β-[2-(2-aminothiazol-4-yl)-(Z)-2-hydroxyiminoacetamido]-3-[(2-methyl-1,3,4-thiadiazol-5-yl)thiomethyl]-3-cephem-4-carboxylate]
Escherichia coli O-111
  ED50: 0.13 mg/kg
[1]
  ED50: 8.84 mg/kg
